Source: US10167276B2, “Compounds and methods for inhibiting JAK” (Dizal (Jiangsu) Pharmaceutical Co., Ltd., priority 2015, dated 2019)
pIC50: −log10 of the molar value.

Tested on: STAT3 phosphorylation in NCI-H1975 cells
Assay: Cellular pSTAT3 assay in NCI-H1975 cells
Type: cell-based
Conditions: Homo sapiens, 2 hours with compound
Procedure: NCI-H1975 cells were plated onto Costar #3701 96 or 384 well tissue-culture treated plates at 5,000 cells/well in 30 uL medium (RPMI, 10% FBS, supplemented with L-glutamine) and incubated overnight at 37° C. in 5% CO2. Phospho STAT3 signal was quantitated utilizing Cell Signaling Technology #7146B Pathscan […] STAT3 antibody pair kit, following manufacturer's instructions.
Cells were dosed with compound and incubated at 37° C. in 5% CO2 for 2 hours, after which medium and compound were aspirated and cells lysed with 35 uL cold 1×Cell Signaling Lysis buffer and chilled at 4° C. for 1-2 hours. Lysate was incubated on STAT3 capture plates at 4° C. overnight, washed 3× with Tris-Buffered Saline with 0.05% Tween® 20 (TBST), then […] STAT3 detection antibody was applied for 2 hours. Following washing with TBST (3×), HRP-secondary antibody was applied for 2 hours. After additional washing, signal was detected using TMB and Stop solution and read at 450 nm using Tecan Infinite M100.

SMILES	pIC50
COC[C@H](C(=O)Nc1cccc2c(-c3ccnc(Nc4cn(C)nc4OC)n3)c[nH]c12)N1CCN(C)CC1 [Example 60, (2R)-3-Methoxy-N-(3-{2-[(3-methoxy-1-methyl-1H-pyrazol-4-yl)amino]pyrimidin-4-yl}-1H-indol-7-yl)-2-(4-methylpiperazin-1-yl)propanamide]	7.01
CC[C@@H](C(=O)Nc1cccc2c(-c3nc(Nc4cn(C)nc4C)ncc3F)c[nH]c12)N1CCN(C)CC1 [Example 50, (2S)-N-{3-[2-[(1,3-dimethyl-1H-pyrazol-4-yl)amino]-5-fluoropyrimidin-4-yl}-1H-indol-7-yl)-2-(4-methylpiperazin-1-yl)butanamide]	6.00
CCOc1nn(C)cc1Nc1ncc(F)c(-c2c[nH]c3c(NC(=O)[C@@H](C)N4CCN(C)[C@H](C)C4)cccc23)n1 [Example 13, (2R)-2-[(3R)-3,4-dimethylpiperazin-1-yl]-N-(3-{2-[(3-ethoxy-1-methyl-1H-pyrazol-4-yl)amino]-5-fluoropyrimidin-4-yl}-1H-indol-7-yl)propanamide]	6.65
COC[C@@H](C(=O)Nc1cccc2c(-c3ccnc(Nc4cn(C)nc4OC)n3)c[nH]c12)N1CCN(C)CC1 [Example 61, (2S)-3-Methoxy-N-(3-{2-[(3-methoxy-1-methyl-1H-pyrazol-4-yl)amino]pyrimidin-4-yl}-1H-indol-7-yl}-2-(4-methylpiperazin-1-yl)propanamide]	5.90
COc1nn(C)cc1Nc1ncc(Br)c(-c2c[nH]c3c(NC(=O)[C@@H](C)N4CCN(C)CC4)cccc23)n1 [Example 37, (2R)-N-(3-{5-bromo-2-[(3-methoxy-1-methyl-1H-pyrazol-4-yl)amino]pyrimidin-4-yl}-1H-indol-7-yl)-2-(4-methylpiperazin-1-yl)propanamide]	7.03
COc1nn(C)cc1Nc1nccc(-c2c[nH]c3c(NC(=O)[C@@H](C)N4CCN(C)[C@@H](C)C4)cccc23)n1 [Example 26, (2R)-2-[(3S)-3,4-dimethylpiperazin-1-yl]-N-(3-{2-[(3-methoxy-1-methyl-1H-pyrazol-4-yl)amino]pyrimidin-4-yl}-1H-indol-7-yl)propanamide]	6.59
CCN1CCN([C@H](C)C(=O)Nc2cccc3c(-c4nc(Nc5cn(C)nc5OC)ncc4C)c[nH]c23)CC1 [Example 16, (2R)-2-(4-ethylpiperazin-1-yl)-N-(3-{2-[(3-methoxy-1-methyl-1H-pyrazol-4-yl)amino]-5-methylpyrimidin-4-yl}-1H-indol-7-yl)propanamide]	6.98
CCOc1nn(C)cc1Nc1ncc(C)c(-c2c[nH]c3c(NC(=O)[C@@H](C)N4CCN(C)C[C@@H]4C)cccc23)n1 [Example 22, (2R)-2-[(2S)-2,4-dimethylpiperazin-1-yl]-N-(3-{2-[(3-ethoxy-1-methyl-1H-pyrazol-4-yl)amino]-5-methylpyrimidin-4-yl}-1H-indol-7-yl)propanamide]	6.26
COc1nn(C)cc1Nc1ncc(C)c(-c2c[nH]c3c(NC(=O)[C@@H](C)N4CCN(C)CC4)cccc23)n1 [Example 34, (2R)-N-(3-{2-[(3-Methoxy-1-methyl-1H-pyrazol-4-yl)amino]-5-methylpyrimidin-4-yl}-1H-indol-7-yl)-2-(4-methylpiperazin-1-yl)propanamide]	6.89
CCOc1nn(C)cc1Nc1ncc(F)c(-c2c[nH]c3c(NC(=O)[C@@H](C)N4CCN(CCOC)CC4)cccc23)n1 [Example 9, (2R)-N-(3-{2-[(3-ethoxy-1-methyl-1H-pyrazol-4-yl)amino]-5-fluoropyrimidin-4-yl}-1H-indol-7-yl)-2-[4-(2-methoxyethyl)piperazin-1-yl]propanamide]	6.23
CCOc1nn(CC)cc1Nc1ncc(C)c(-c2c[nH]c3c(NC(=O)[C@@H](C)N4CCN(C)CC4)cccc23)n1 [Example 59, (2R)-N-(3-{2-[(3-ethoxy-1-ethyl-1H-pyrazol-4-yl)amino]-5-methylpyrimidin-4-yl}-1H-indol-7-yl)-2-(4-methylpiperazin-1-yl)propanamide]	6.61

The remaining lines, values ahead:

pIC50	SMILES
6.19	COc1nn(C)cc1Nc1nccc(-c2c[nH]c3c(NC(=O)[C@@H](C)N4CCN(C)C[C@@H]4C)cccc23)n1 [Example 1, (2R)-2-[(2S)-2,4-dimethylpiperazin-1-yl]-N-(3-{2-[(3-methoxy-1-methyl-1H-pyrazol-4-yl)amino]pyrimidin-4-yl}-1H-indol-7-yl)propanamide]
< 5.52	COc1nn(C)cc1Nc1ncc(F)c(-c2c[nH]c3c(NC(=O)[C@H](C)N4CCN(C)C[C@@H]4C)cccc23)n1 [Example 7b, (2S)-2-[(3S)-2,4-dimethylpiperazin-1-yl]-N-(3-{5-fluoro-2-[(3-methoxy-1-methyl-1H-pyrazol-4-yl)amino]pyrimidin-4-yl}-1H-indol-7-yl)propanamide]
7.00	CCN1CCN([C@H](C)C(=O)Nc2cccc3c(-c4ccnc(Nc5cn(C)nc5OC)n4)c[nH]c23)CC1 [Example 28, (2R)-2-(4-ethylpiperazin-1-yl)-N-(3-{2-[(3-methoxy-1-methyl-1H-pyrazol-4-yl)amino]pyrimidin-4-yl}-1H-indol-7-yl)propanamide]
6.29	COc1nn(C)cc1Nc1ncc(F)c(-c2c[nH]c3c(NC(=O)[C@@H](C)N4CCN(C)C[C@@H]4C)cccc23)n1 [Example 7a, (2R)-2-[(3S)-2,4-dimethylpiperazin-1-yl]-N-(3-{5-fluoro-2-[(3-methoxy-1-methyl-1H-pyrazol-4-yl)amino]pyrimidin-4-yl}-1H-indol-7-yl)propanamide]
6.43	CCOc1nn(C)cc1Nc1ncc(C)c(-c2c[nH]c3c(NC(=O)[C@@H](C)N4CCN(C)[C@H](C)C4)cccc23)n1 [Example 24, (2R)-2-[(3R)-3,4-dimethylpiperazin-1-yl]-N-(3-{2-[(3-ethoxy-1-methyl-1H-pyrazol-4-yl)amino]-5-methylpyrimidin-4-yl}-1H-indol-7-yl)propanamide]
6.06	CC[C@@H](C(=O)Nc1cccc2c(-c3ccnc(Nc4cn(C)nc4OC)n3)c[nH]c12)N1CCN(C)CC1 [Example 48, (2S)-N-(3-{2-[(3-Methoxy-1-methyl-1H-pyrazol-4-yl)amino]pyrimidin-4-yl}-1H-indol-7-yl)-2-(4-methylpiperazin-1-yl)butanamide]
7.25	COC[C@H](C(=O)Nc1cccc2c(-c3nc(Nc4cn(C)nc4C)ncc3F)c[nH]c12)N1CCN(C)CC1 [Example 53, (2R)-N-(3-{2-[(1,3-dimethyl-1H-pyrazol-4-yl)amino]-5-fluoropyrimidin-4-yl}-1H-indol-7-yl)-3-methoxy-2-(4-methylpiperazin-1-yl)propanamide]
6.80	CCOc1nn(C)cc1Nc1ncc(Cl)c(-c2c[nH]c3c(NC(=O)[C@@H](C)N4CCN(C)CC4)cccc23)n1 [Example 40, (2R)-N-(3-{5-chloro-2-[(3-ethoxy-1-methyl-1H-pyrazol-4-yl)amino]pyrimidin-4-yl}-1H-indol-7-yl)-2-(4-methylpiperazin-1-yl)propanamide]
